According to patent publication US20010021514A1, “Luminescent metal-ligand complexes” (priority 1999, published 2001):
Like-named read-outs stand apart in the source and are kept apart here.

Key:
[1] = background statement on known luminophores; cited from earlier work
[2] = Photoluminescence properties of the probe (spectra, Stokes' shift, lifetime, extinction); type: physicochemical
Text: Photoluminescence may be characterized by a number of parameters, including extinction coefficient, excitation and emission spectrum, Stokes' shift, luminescence lifetime, and quantum yield. An extinction coefficient is a wavelength-dependent measure of the absorbing power of a luminophore. An excitation spectrum is the dependence of emission intensity upon the excitation wavelength, measured at a single constant emission wavelength. An emission spectrum is the wavelength distribution of the emission, measured after excitation with a single constant excitation wavelength. A Stokes' shift is the difference in wavelengths between the maximum of the emission spectrum and the maximum of the absorption spectrum. A luminescence lifetime is the average time that a luminophore spends in the excited state prior to returning to the ground state. A quantum yield is the ratio of the number of photons emitted to the number of photons absorbed by a luminophore.

[3] = Intrinsic polarization from excitation polarization spectra in vitrified solution; type: physicochemical; conditions: for fundamental anisotropy r0: corresponding to the intrinsic polarization; for intrinsic polarization P0: excitation polarization spectra in vitrified solution (glycerol: water=6:4; −55° C.)
Text: Aspects of the invention include the use of selected long-lifetime metal-ligand complexes in luminescence polarization assays. Here, as elsewhere in the application, polarization assays encompass any assays involving detection of polarized light, including steady-steady and time-resolved assays, and computation of polarization and anisotropy functions, among others. […] Here, the invention was used without limitation to monitor interactions between human serum albumin (HSA) and goat-anti-HSA (IgG) antibodies. The HSA was labeled with a ruthenium-ligand complex polarization probe, Sunnyvale Red™ (SVR™), as described elsewhere in this application. […] These values were determined by measuring the excitation polarization spectra in vitrified solution (glycerol: water=6:4; −55° C.).

Compound	luminescence lifetime (general statement) [1]	Stokes' shift [2] [nm]	emission maximum [2] [nm]	excitation maximum [2] [nm]	luminescence lifetime [2]	excitation maximum ([2]; listed as SVR) [nm]	luminescence lifetime ([2]; listed as SVR) [ns]	extinction coefficient E(SVR) ([2]; used with A479 for dye concentration)	fundamental anisotropy r0 [3]	fundamental anisotropy r0 ([3]; listed as SVR)	intrinsic polarization P0 [3]	intrinsic polarization P0 ([3]; listed as SVR)
O=C([O-])c1ccnc(-c2cc(C(=O)[O-])ccn2)c1.[Ru+2].c1ccc(-c2ccccn2)nc1.c1ccc(-c2ccccn2)nc1 [Ru(bpy)2dcbpy, ruthenium 2,2′-dibipyridyl 4,4′-dicarboxyl-2,2′-bipyridine]	roughly 400 nanoseconds											
Ru(bpy)2(dacbpy)-ITC [Sunnyvale Red™]		~200	670	488	about 360 ns	487	360	~15,000	about 0.28	0.27	about 0.37	0.36
